Assay results published in patent US8231888B2, “Isoxazolines for controlling invertebrate pests” (priority 2005, dated 2012).

Key:
Assay type in all cases: in vivo
[1] = system: diamondback moth (Plutella xylostella); experiment: Test A: control of diamondback moth on radish plant, foliar spray; settings: sprayed at 250 and/or 50 ppm, 6 days, 25° C.; no asterisk (not limited to 250 ppm)
Text: For evaluating control of diamondback moth (Plutella xylostella) the test unit consisted of a small open container with a 12-14-day-old radish plant inside. This was pre-infested with about 50 neonate larvae that were dispensed into the test unit via corn cob grits using a bazooka inoculator. The larvae moved onto the test plant after being dispensed into the test unit.
(§1) Test compounds were formulated using a solution containing 10% acetone, 90% water and 300 ppm X-77™ Spreader Lo-Foam Formula non-ionic surfactant containing alkylarylpolyoxyethylene, free fatty acids, glycols and isopropanol (Loveland Industries, Inc. Greeley, Colo., USA). The formulated compounds were applied in 1 mL of liquid through a SUJ2 atomizer nozzle with 1/8 JJ custom body (Spraying Systems Co. Wheaton, Ill., USA) positioned 1.27 cm (0.5 inches) above the top of each test unit. All experimental compounds in these tests were sprayed at 250 and/or 50 ppm, and the test was replicated three times. After spraying of the formulated test compound, each test unit was allowed to dry for 1 h and then a black, screened cap was placed on top. The test units were held for 6 days in a growth chamber at 25° C. and 70% relative humidity. Plant feeding damage was then visually assessed based on foliage consumed and a pest mortality rating was also counted and calculated for each test unit.

[2] = system: fall armyworm (Spodoptera frugiperda); experiment: Test B: control of fall armyworm on corn (maize) plant, foliar spray; settings: sprayed at 250 and/or 50 ppm; no asterisk (not limited to 250 ppm)
Method: as §1
For evaluating control of fall armyworm (Spodoptera frugiperda) the test unit consisted of a small open container with a 4-5-day-old corn (maize) plant inside. This was pre-infested (using a core sampler) with 10-15 1-day-old larvae on a piece of insect diet. Test compounds were formulated and sprayed at 250 and/or 50 ppm as described for Test A and replicated three times. After spraying, the test units were maintained in a growth chamber and then the control efficacy was rated for each test unit as described for Test A.

[3] = system: western flower thrips (Frankliniella occidentalis); experiment: Test D: control of western flower thrips on Soleil bean plant, contact and/or systemic; settings: 6 days, 25° C.
Method: as §1
For evaluating control of the western flower thrips (Frankliniella occidentalis) through contact and/or systemic means, the test unit consisted of a small open container with a 5-7 day old Soleil Bean plant inside. Test compounds were formulated and sprayed at 250 and/or 50 ppm, and the test was replicated three times as described for Test A. After spraying, the test units were allowed to dry for 1 hour and then 22-27 adult thrips were added to each unit and then a black, screened cap was placed on top. The test units were held for 6 days at 25° C. and 45-55% relative humidity. A mortality rating was assessed along with a plant damage rating for each test unit.

[4] = sprayed at 250 and/or 50 ppm, no asterisk (not limited to 250 ppm)
[5] = asterisk: observed only at 250 ppm

| Structure (SMILES) | control efficacy (20% or less feeding damage or 80% or more mortality) [1] | control efficacy (20% or less feeding damage or 80% or more mortality) [2] | control efficacy (20% or less feeding damage or 80% or more mortality) [3, 4] | control efficacy (20% or less feeding damage or 80% or more mortality) [3, 5] |
| --- | --- | --- | --- | --- |
| CCC(C)NC(=O)c1ccc(C2=NOC(c3cc(Cl)cc(Cl)c3)(C(F)(F)F)C2)c2ccccc12 (mixture of isomers) [Compound 32] | very good to excellent levels of control efficacy | very good to excellent levels of control efficacy | very good to excellent levels of control efficacy | – |
| O=C(NCC(F)(F)F)c1ccc(C2=NOC(c3cc(Cl)cc(Cl)c3)(C(F)(F)F)C2)c2ccccc12 (stereo not drawn) [Compound 1] | very good to excellent levels of control efficacy | very good to excellent levels of control efficacy | very good to excellent levels of control efficacy | – |
| FC(F)(F)C1(c2cc(Cl)cc(Cl)c2)CC(c2ccc(C(=S)NCc3ccccn3)c3ccccc23)=NO1 (stereo not drawn) [Compound 8] | very good to excellent levels of control efficacy | very good to excellent levels of control efficacy | very good to excellent levels of control efficacy | – |
| CCNC(=O)c1ccc(C2=NOC(c3cc(Cl)cc(Cl)c3)(C(F)(F)F)C2)c2ccccc12 (stereo not drawn) [Compound 10] | very good to excellent levels of control efficacy | very good to excellent levels of control efficacy | very good to excellent levels of control efficacy | – |
| COC(=O)N(Cc1ccccn1)C(=O)c1ccc(C2=NOC(c3cc(Cl)cc(Cl)c3)(C(F)(F)F)C2)c2ccccc12 (stereo not drawn) [Compound 11] | very good to excellent levels of control efficacy | very good to excellent levels of control efficacy | very good to excellent levels of control efficacy | – |
| CN(C)CCNC(=O)c1ccc(C2=NOC(c3cc(Cl)cc(Cl)c3)(C(F)(F)F)C2)c2ccccc12 (stereo not drawn) [Compound 13] | very good to excellent levels of control efficacy | very good to excellent levels of control efficacy | – | very good to excellent levels of control efficacy |
| CN(C)CCNC(=O)c1ccc(C2=NOC(c3cc(Cl)cc(Cl)c3)(C(F)(F)F)C2)c2ccccc12.Cl (stereo not drawn) [Compound 14] | very good to excellent levels of control efficacy | very good to excellent levels of control efficacy | – | very good to excellent levels of control efficacy |
| CC(C)NC(=O)c1ccc(C2=NOC(c3cc(Cl)cc(Cl)c3)(C(F)(F)F)C2)c2ccccc12 (stereo not drawn) [Compound 16] | very good to excellent levels of control efficacy | very good to excellent levels of control efficacy | very good to excellent levels of control efficacy | – |
| C=CCNC(=O)c1ccc(C2=NOC(c3cc(Cl)cc(Cl)c3)(C(F)(F)F)C2)c2ccccc12 (stereo not drawn) [Compound 18] | very good to excellent levels of control efficacy | very good to excellent levels of control efficacy | very good to excellent levels of control efficacy | – |
| C#CCNC(=O)c1ccc(C2=NOC(c3cc(Cl)cc(Cl)c3)(C(F)(F)F)C2)c2ccccc12 (stereo not drawn) [Compound 19] | very good to excellent levels of control efficacy | very good to excellent levels of control efficacy | very good to excellent levels of control efficacy | – |
| O=C(NCC1CC1)c1ccc(C2=NOC(c3cc(Cl)cc(Cl)c3)(C(F)(F)F)C2)c2ccccc12 (stereo not drawn) [Compound 20] | very good to excellent levels of control efficacy | very good to excellent levels of control efficacy | – | very good to excellent levels of control efficacy |
| CC(NC(=O)c1ccc(C2=NOC(c3cc(Cl)cc(Cl)c3)(C(F)(F)F)C2)c2ccccc12)c1ccccn1 (stereo not drawn) [Compound 21] | very good to excellent levels of control efficacy | very good to excellent levels of control efficacy | very good to excellent levels of control efficacy | – |
| O=C(NCc1ccccn1)c1ccc(C2=NOC(c3cc(Br)cc(Br)c3)(C(F)(F)F)C2)c2ccccc12 (stereo not drawn) [Compound 26] | very good to excellent levels of control efficacy | very good to excellent levels of control efficacy | very good to excellent levels of control efficacy | – |
| CC(NC(=O)c1ccc(C2=NOC(c3cc(Cl)cc(Cl)c3)(C(F)(F)F)C2)c2ccccc12)C(C)(C)C (stereo not drawn) [Compound 34] | very good to excellent levels of control efficacy | very good to excellent levels of control efficacy | – | very good to excellent levels of control efficacy |
| O=C(NCCO)c1ccc(C2=NOC(c3cc(Cl)cc(Cl)c3)(C(F)(F)F)C2)c2ccccc12 (stereo not drawn) [Compound 35] | very good to excellent levels of control efficacy | very good to excellent levels of control efficacy | very good to excellent levels of control efficacy | – |
| O=C(N[C@H]1CCc2ccccc21)c1ccc(C2=NOC(c3cc(Cl)cc(Cl)c3)(C(F)(F)F)C2)c2ccccc12 (stereo partly drawn) [Compound 39] | very good to excellent levels of control efficacy | very good to excellent levels of control efficacy | – | very good to excellent levels of control efficacy |
| COCCNC(=O)c1ccc(C2=NOC(c3cc(Cl)cc(Cl)c3)(C(F)(F)F)C2)c2ccccc12 (stereo not drawn) [Compound 41] | very good to excellent levels of control efficacy | very good to excellent levels of control efficacy | very good to excellent levels of control efficacy | – |
| CCOC(=O)CNC(=O)c1ccc(C2=NOC(c3cc(Cl)cc(Cl)c3)(C(F)(F)F)C2)c2ccccc12 (stereo not drawn) [Compound 42] | very good to excellent levels of control efficacy | very good to excellent levels of control efficacy | very good to excellent levels of control efficacy | – |
| O=C(NNc1ccccc1)c1ccc(C2=NOC(c3cc(Cl)cc(Cl)c3)(C(F)(F)F)C2)c2ccccc12 (stereo not drawn) [Compound 46] | very good to excellent levels of control efficacy | very good to excellent levels of control efficacy | – | very good to excellent levels of control efficacy |
| COC(=O)[C@@H](NC(=O)c1ccc(C2=NOC(c3cc(Cl)cc(Cl)c3)(C(F)(F)F)C2)c2ccccc12)C(C)C (stereo partly drawn) [Compound 49] | very good to excellent levels of control efficacy | very good to excellent levels of control efficacy | very good to excellent levels of control efficacy | – |
| O=C(CNC(=O)c1ccc(C2=NOC(c3cc(Cl)cc(Cl)c3)(C(F)(F)F)C2)c2ccccc12)NCC(F)(F)F (stereo not drawn) [Compound 51] | very good to excellent levels of control efficacy | very good to excellent levels of control efficacy | very good to excellent levels of control efficacy | – |
